Data set [1] has as its target megalin (Rattus norvegicus, UniProt P98158). Particulars: 1 mg cilastatin injected in advance; 1.5 μg protein of interest; FIG. 27.
Protocol: According to the method of Orlando, et al, megalin protein purified from Sprague-Dawley (SD) rat kidneys was immobilized on quartz crystals. To be specific, with the use of an immobilization kit for AFFNIX® (Initium Inc.) and according to the recommended protocol for the kit, a megalin protein solution was prepared in Buffer A as provided with the kit to a concentration of 62.5 μg/mL, and placed and immobilized onto quartz crystals mounted in a holder.
More specifically, the protein of interest was injected in aliquots of the megalin protein-immobilized quartz crystals in 200 μL of buffer to measure frequency. The same measurement was done on quartz crystals, as a control, on which the same amount of bovine serum albumin (BAS) was solid phased instead of megalin. Thus, the specific binding ability of the protein of interest to megalin was analyzed.
Further, aliquots of megalin protein-immobilized quartz crystals in a buffer in which 1 mg of cilastatin was injected in advance were mounted in the measurement instrument, and the frequency was confirmed to be stable, and then, 1.5 μg of the protein of interest was injected to measure frequency over time, whereby the antagonizing activity of cilastatin against the binding of the protein of interest to megalin was analyzed. The same experiment was performed for the control group.
Data set [2] has as its system protein (carrier) used in Reference Example 5. Particulars: 0-50 mM cilastatin; 10 mM iomeprol, ioversol, iodixanol, iopromide or iohexol solid-phased beads; FIGS. 22-26.
Protocol: Different solutions, as mentioned below, were prepared using 100 mM KCL buffer (as mentioned in Reference Example 4) and the protein used in Reference Example 5, and were reacted at 4° C. for 2 hours.
a) Solution containing 25 ng/μL of the protein of interest and 0 mM of the contrast medium
b) Solution containing 25 ng/μL of the protein of interest and 10 mM of the contrast medium
c) Solution containing 25 ng/μL of the protein of interest and 25 mM of the contrast medium
d) Solution containing 25 ng/μL of the protein of interest and 50 mM of the contrast medium
Next, the above-prepared solutions were each added to 5 mg of the 0 mM or 10 mM contrast solid-phased beads dispersed and washed by the procedure described in Reference Example 4, and were reacted at 4° C. for 4 hours. The solution/beads combinations adopted were as mentioned below.
Then, the different mixtures were treated by following the procedure described in Reference Example 4, and heat-eluted samples were prepared from the different reaction solutions.
Different solutions, as mentioned below, were prepared using 100 mM KCL buffer (as mentioned in Reference Example 4), and were reacted at 4° C. for 2 hours.
a′) Solution containing 25 ng/μL of the protein of interest and 0 mM of cilastatin
b′) Solution containing 25 ng/μL of the protein of interest and 10 mM of cilastatin […]
The test system of data set [3] is C57BL/6J mice. In words: Inhibition of contrast-induced renal injuries in murine contrast nephropathy model (Example 2). Format: in vivo, mouse. Particulars: 200 μL iomeprol + 400 mg/kg cilastatin. How it is done: In order to confirm the ability of cilastatin to inhibit renal injuries, C57BL/6J mice were simultaneously administered with an iodinated contrast medium and cilastatin, and the results were analyzed.
Left kidneys were extracted from the C57BL/6J mice, and 14 days later, right kidney pedicles were ligated for 30 minutes. Thereafter, reperfusion was carried out. […]
a) Contrast medium+cilastatin-treated group: 200 μL of iomeprol (CM)+400 mg/kg cilastatin (CS) (100 LL) b) Contrast medium+normal saline-treated group: 200 μL of iomeprol (CM)+100 μL of NS For each of the groups, after 48 hours from the medication, blood and urine samples were collected, and serum Cr, MN and cystatin C levels, and urinary Cr, NAG and KIM-1 levels were measured. Further, right kidneys were extracted and histologically evaluated by immunostaining with KIM-1 and staining with PAS. […] Serum cystatin C and urinary KIM-1 measurements were contracted to Oriental Yeast Co., Ltd.
0.5±: Clear but weak granular staining present focally along the luminal surface of non-atrophic proximal tubules 1+: Clear but weak granular staining completely surrounding the luminal surface of non-atrophic proximal tubules 2+: Moderately intense granular staining completely surrounding the luminal surface of non-atrophic proximal tubules and extending into intercellular junctions 3+: Strong large granular staining completely surrounding the luminal surface of non-atrophic proximal tubules and extending into intercellular junctions […]
Individuals meeting these criteria were regarded as individuals with onset of contrast nephropathy.

Data set [4] has as its target T1, megalin (Mus musculus, UniProt A2ARV4).
Description: In this example, it was verified, using an electron probe microanalyzer (EPMA), whether megalin-dependent internalization of contrast media (iodine) into murine renal proximal tubular epithelial cells was inhibited by treatment with cilastatin.
C57BL/6J mice were divided into the following groups and administered with the following agents from the tail vein.
Therefore, by calculating a ratio of X-ray intensity between iodine (I) and nitrogen (N) (I/N) in a specified area of thin-film biological samples, iodine (I) levels in different samples can be relatively quantified and compared. X-ray count ratio=(X-ray count of iodine/unit area)/(X-ray count of nitrogen/(unit area))
Based on this principle, iodine levels in a specified area were relatively quantified and compared.
Further, 1980 μm^2 regions containing cortex portions were analyzed, and seven 500 μm^2 areas were chosen from the cortex portions so as not to overlap with each other. An average was calculated of the I/N X-ray ratios in the seven areas, and regarded as an I/N X-ray ratio for one individual. Those I/N X-ray ratios for six individuals in each of the a) and b) groups were quantified and compared.
Data set [5] deals with megalin. Particulars: mouse, in vivo.
Description: (§1) EPMA is an electron microprobe (EMP) instrument that analyzes the constituent elements of a substance of interest by irradiating electron beams onto the substance and measuring the wavelengths and intensities of characteristic X-rays unique to the different elements, which are generated by the electron beams. […] The behaviors of contrast media per se can be verified by analyzing iodine content distribution.
(§2) In order to use right kidneys for analysis, 3 mm-thick sections containing a kidney pedicle portion were prepared, embedded in OCT compound, freeze-fixed with liquid nitrogen, and stored at −80° C.
(§3) Next, the stored sections were sliced at a thickness of 4 μm using a cryostat (CM1850, Leica Biosystems), and the obtained slices were attached onto carbon-coated grids and freeze-dried overnight.
(§4) 378 μm^2 cortical areas in the prepared tissue slices were analyzed by EPMA (EPMA 1610, Shimadzu Corporation, Kyoto, Japan) to map iodine present in the structures of the contrast media.
The target in data set [6] is T1, megalin. Particulars: in vivo.
Description: as §1, §2, §3, §4

T1 sequence (A2ARV4 26-4660): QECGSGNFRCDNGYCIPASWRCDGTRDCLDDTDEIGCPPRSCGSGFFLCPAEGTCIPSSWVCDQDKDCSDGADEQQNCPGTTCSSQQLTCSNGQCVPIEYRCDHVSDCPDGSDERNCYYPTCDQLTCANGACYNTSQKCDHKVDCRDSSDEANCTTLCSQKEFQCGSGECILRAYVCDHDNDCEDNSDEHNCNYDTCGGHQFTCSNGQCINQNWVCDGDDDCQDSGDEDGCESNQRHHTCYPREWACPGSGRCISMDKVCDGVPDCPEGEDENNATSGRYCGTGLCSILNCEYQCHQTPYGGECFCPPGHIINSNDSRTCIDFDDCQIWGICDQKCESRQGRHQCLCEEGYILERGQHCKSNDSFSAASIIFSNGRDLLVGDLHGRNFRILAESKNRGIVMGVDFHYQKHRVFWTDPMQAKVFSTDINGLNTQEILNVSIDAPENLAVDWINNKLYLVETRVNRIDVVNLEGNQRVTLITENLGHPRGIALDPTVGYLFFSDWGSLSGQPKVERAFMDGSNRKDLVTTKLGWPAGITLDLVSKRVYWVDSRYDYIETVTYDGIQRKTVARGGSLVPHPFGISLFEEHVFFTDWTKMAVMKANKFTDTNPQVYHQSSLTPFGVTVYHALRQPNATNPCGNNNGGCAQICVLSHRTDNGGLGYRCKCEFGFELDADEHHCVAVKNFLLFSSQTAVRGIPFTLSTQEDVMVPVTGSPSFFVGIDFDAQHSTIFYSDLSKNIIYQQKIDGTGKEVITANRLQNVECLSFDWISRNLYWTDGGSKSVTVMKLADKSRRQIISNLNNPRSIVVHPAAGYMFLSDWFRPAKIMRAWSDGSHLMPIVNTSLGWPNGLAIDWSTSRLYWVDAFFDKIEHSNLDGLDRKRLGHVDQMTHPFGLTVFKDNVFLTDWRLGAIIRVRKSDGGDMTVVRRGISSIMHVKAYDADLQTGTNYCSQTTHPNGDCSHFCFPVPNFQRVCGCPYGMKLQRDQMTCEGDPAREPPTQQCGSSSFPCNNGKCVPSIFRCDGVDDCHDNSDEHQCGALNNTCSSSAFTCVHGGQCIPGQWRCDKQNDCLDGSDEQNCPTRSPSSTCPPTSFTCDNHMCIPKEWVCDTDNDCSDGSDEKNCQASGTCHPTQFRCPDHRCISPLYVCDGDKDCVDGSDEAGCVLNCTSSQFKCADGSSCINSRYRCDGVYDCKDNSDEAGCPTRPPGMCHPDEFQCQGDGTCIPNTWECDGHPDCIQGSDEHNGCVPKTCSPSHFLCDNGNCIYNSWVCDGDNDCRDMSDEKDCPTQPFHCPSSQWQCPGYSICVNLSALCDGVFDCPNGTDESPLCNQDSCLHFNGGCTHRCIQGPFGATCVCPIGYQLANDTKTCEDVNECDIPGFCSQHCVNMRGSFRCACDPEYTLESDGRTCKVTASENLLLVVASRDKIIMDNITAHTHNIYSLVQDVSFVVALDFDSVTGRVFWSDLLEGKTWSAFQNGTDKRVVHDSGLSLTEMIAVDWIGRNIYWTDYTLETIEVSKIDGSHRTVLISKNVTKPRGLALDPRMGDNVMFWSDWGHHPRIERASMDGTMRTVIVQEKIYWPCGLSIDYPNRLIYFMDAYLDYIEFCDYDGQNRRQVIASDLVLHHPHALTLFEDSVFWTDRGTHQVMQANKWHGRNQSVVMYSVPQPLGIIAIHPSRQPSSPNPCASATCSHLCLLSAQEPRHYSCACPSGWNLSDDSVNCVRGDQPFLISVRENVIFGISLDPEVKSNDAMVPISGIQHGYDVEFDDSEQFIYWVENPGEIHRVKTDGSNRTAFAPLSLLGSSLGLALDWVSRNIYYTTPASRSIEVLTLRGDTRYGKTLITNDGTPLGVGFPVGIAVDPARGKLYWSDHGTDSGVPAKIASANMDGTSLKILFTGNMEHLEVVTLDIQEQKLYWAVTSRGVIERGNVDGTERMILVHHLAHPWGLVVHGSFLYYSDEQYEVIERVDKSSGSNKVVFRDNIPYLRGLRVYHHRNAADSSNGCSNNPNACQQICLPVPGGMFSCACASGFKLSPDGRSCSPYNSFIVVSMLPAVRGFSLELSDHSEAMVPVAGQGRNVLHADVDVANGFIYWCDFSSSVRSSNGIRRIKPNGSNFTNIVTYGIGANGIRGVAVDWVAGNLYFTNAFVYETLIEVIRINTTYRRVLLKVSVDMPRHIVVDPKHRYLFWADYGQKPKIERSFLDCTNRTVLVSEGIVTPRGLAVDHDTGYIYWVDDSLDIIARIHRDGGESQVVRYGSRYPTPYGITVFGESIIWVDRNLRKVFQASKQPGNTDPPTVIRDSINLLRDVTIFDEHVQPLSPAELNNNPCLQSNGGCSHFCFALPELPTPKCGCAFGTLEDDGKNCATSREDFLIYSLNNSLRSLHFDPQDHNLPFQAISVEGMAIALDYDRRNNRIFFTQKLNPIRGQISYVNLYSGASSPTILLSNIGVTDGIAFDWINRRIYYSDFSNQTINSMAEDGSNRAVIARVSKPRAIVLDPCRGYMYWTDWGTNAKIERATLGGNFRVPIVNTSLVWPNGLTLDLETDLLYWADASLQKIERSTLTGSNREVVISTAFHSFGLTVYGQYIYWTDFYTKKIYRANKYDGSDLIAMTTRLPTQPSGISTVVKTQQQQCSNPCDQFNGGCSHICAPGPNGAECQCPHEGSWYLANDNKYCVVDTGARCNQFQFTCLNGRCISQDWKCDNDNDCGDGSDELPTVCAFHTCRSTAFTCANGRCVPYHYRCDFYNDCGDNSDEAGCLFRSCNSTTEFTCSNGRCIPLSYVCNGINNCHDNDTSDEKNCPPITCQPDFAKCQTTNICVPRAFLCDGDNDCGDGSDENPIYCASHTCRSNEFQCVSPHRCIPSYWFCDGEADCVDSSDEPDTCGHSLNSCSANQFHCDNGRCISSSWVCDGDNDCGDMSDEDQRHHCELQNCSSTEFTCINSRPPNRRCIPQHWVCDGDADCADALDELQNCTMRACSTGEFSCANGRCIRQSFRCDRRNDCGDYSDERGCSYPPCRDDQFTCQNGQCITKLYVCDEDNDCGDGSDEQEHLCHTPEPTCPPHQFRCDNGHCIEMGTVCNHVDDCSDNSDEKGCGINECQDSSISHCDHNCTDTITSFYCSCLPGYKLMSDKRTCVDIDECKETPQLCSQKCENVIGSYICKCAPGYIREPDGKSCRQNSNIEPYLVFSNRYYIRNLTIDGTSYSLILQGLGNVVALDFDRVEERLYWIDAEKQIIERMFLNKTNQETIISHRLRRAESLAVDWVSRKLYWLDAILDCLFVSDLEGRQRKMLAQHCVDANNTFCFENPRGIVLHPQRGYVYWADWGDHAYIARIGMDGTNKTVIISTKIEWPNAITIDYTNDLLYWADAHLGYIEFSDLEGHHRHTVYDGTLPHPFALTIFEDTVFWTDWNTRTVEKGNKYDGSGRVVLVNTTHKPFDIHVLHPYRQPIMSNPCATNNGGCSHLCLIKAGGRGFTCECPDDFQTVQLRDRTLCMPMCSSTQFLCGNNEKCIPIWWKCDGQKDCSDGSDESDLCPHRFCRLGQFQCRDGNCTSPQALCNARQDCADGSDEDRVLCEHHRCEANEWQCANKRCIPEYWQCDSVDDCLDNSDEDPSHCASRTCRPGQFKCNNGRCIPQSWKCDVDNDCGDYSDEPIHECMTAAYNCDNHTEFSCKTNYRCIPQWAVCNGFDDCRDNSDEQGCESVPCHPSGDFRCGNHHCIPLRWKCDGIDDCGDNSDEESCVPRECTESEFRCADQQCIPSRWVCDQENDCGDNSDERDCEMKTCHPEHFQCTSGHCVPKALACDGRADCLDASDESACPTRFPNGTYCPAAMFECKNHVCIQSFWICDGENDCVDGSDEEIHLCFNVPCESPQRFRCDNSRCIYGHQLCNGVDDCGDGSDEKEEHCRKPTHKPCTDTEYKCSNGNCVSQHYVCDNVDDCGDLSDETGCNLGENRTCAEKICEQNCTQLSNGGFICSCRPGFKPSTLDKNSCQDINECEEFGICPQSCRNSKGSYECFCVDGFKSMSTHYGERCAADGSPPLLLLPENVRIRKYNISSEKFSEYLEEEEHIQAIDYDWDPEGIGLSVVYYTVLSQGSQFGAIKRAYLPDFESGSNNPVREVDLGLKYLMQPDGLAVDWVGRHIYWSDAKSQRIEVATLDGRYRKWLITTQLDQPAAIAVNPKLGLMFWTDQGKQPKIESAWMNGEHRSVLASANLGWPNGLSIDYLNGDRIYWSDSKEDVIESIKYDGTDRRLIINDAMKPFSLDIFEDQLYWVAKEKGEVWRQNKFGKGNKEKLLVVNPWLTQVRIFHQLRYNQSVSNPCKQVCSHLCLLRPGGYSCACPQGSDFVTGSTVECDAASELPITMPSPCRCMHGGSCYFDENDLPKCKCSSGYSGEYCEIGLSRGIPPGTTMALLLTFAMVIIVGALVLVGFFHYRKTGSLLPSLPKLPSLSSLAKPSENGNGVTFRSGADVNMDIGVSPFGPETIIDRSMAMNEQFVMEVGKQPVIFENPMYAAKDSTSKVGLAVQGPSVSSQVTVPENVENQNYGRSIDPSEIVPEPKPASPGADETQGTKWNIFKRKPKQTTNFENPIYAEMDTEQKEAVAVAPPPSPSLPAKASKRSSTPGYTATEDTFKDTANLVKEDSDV

As to `CC1(C)C[C@@H]1C(=O)N/C(=C\CCCCSC[C@H](N)C(=O)O)C(=O)O` [cilastatin, (Z)-7-[[(R)-2-amino-2-carboxyethyl]thio]-2-[[[(S)-2,2-dimethylcyclopropyl]carbonyl]amino]-2-heptenoic acid], the “change in frequency after injection of the protein of interest onto megalin-immobilized quartz crystals (QCM)” value in data set [1] is “reduced”. In data set [2], the “band corresponding to the protein of interest bound to contrast-bound beads, in the coexistence of cilastatin” value is given as “decreased”. In data set [3] (48 h, FIG. 16), the “increase in urinary KIM-1 levels versus contrast medium+normal saline group” value is on record as “significantly (t-test) reduced”. In data set [3] (48 h after medication), the “percentage of individuals with onset of contrast nephropathy” value came to 0%. Besides, the “expression of KIM-1 in kidney tissue (staining intensity scores) versus contrast medium+normal saline group” value in data set [3] (outer cortices (S1 and S2 segments), FIG. 18) is reported as “significantly (t-test) lower”. Besides, the “detection of iodine by EPMA in kidney tissue versus contrast medium+normal saline groups” value in data set [4] (400 mg/kg cilastatin + 100 μL contrast medium, tail vein, FIG. 11 (iomeprol)) is recorded as “decrease in the detection of iodine”. Also, the “I/N X-ray ratio in kidney cortex versus contrast medium+normal saline groups” value in data set [4] (400 mg/kg cilastatin + 100 μL iomeprol, iohexol, ioversol or iodixanol, six individuals per group, FIGS. 12 to 15) is “significantly (t-test) lower”.

Turning to `CC(=O)N(CC(O)CN(C(C)=O)c1c(I)c(C(=O)NCC(O)CO)c(I)c(C(=O)NCC(O)CO)c1I)c1c(I)c(C(=O)NCC(O)CO)c(I)c(C(=O)NCC(O)CO)c1I` (stereo not shown) [iodixanol], the “iodine contents detected in kidney slices by EPMA, NDRG1-Cre mice versus control mice” value in data set [5] was “lower”. Also, the “iodine detected in kidney slices by EPMA, control mice” value (shortened to “iodine detected in kidney slices”) in data set [6] is reported as “High concentrations of iodine were detected”.

With `CC(=O)N(CC(O)CO)c1c(I)c(C(=O)NCC(O)CO)c(I)c(C(=O)NCC(O)CO)c1I` (stereo not shown) [iohexol], the “iodine contents detected in kidney slices by EPMA, NDRG1-Cre mice versus control mice” value in data set [5] is on record as “lower”. The “iodine detected in kidney slices” value in data set [6] is “High concentrations of iodine were detected”.

`C[C@H](O)C(=O)Nc1c(I)c(C(=O)NC(CO)CO)c(I)c(C(=O)NC(CO)CO)c1I` [iopamidol]: in data set [5], the “iodine contents detected in kidney slices by EPMA, NDRG1-Cre mice versus control mice” value was “lower”. In data set [6], the “iodine detected in kidney slices” value is given as “High concentrations of iodine were detected”.

With `COCC(=O)Nc1c(I)c(C(=O)NCC(O)CO)c(I)c(C(=O)N(C)CC(O)CO)c1I` (stereo not shown) [iopromide], the “iodine contents detected in kidney slices by EPMA, NDRG1-Cre mice versus control mice” value in data set [5] was “lower”. For the same compound, the “iodine detected in kidney slices” value in data set [6] is listed as “High concentrations of iodine were detected”.

For the compound `O=C(NCC(O)CO)c1c(I)c(C(=O)NCC(O)CO)c(I)c(N(CCO)C(=O)CO)c1I` (stereo not shown) [ioversol], the “iodine contents detected in kidney slices by EPMA, NDRG1-Cre mice versus control mice” value in data set [5] is “lower”.
